Data: patent publication US9181236B2, “2-spiro-substituted iminothiazines and their mono-and dioxides as bace inhibitors, compositions and their use” (Merck Sharp & Dohme Corp., priority 2011, dated 2015)

Tests used:
[1] = biological target: purified human autoBACE-2 (Homo sapiens (Human), UniProt Q9Y5Z0); assay: BACE-2 Assay (BACE-HTRF assay); assay type: biochemical; settings: Ki calculated from IC50 using the Cheng-Prusoff equation; read-out: BACE2 Ki
Description: Inhibitor IC50s at purified human autoBACE-2 are determined in a time-resolved endpoint proteolysis assay that measures hydrolysis of the QSY7-[…]-Eu-amide FRET peptide substrate (BACE-HTRF assay). […] DMSO is present at 5% final concentration in the assay. Following laser excitation of sample wells at 320 nm, the fluorescence signal at 620 nm is collected for 400 ms following a 50 μs delay on a RUBYstar HTRF plate reader (BMG Labtechnologies). Raw RFU data is normalized to maximum (1.0 nM BACE/DMSO) and minimum (no enzyme/DMSO) RFU values. […] The Ki values are calculated from the IC50 using the Cheng-Prusoff equation.

[2] = biological target: soluble human BACE1 catalytic domain (Homo sapiens (Human), UniProt P56817); assay: BACE1 HTRF FRET Assay; assay type: biochemical; settings: Ki calculated from IC50 using the Cheng-Prusoff equation
Sequence of soluble human BACE1 catalytic domain (P56817 75-416): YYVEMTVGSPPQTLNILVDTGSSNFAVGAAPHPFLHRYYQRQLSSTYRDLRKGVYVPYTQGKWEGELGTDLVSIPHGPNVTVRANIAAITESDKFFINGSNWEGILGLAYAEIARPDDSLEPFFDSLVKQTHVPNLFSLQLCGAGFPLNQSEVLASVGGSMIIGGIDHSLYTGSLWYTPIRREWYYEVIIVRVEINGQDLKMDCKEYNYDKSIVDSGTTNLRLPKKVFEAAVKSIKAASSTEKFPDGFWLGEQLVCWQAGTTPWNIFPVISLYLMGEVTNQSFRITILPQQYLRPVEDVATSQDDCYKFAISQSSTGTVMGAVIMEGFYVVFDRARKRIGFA

Sequence of purified human autoBACE-2 (Q9Y5Z0 63-473 limits assumed): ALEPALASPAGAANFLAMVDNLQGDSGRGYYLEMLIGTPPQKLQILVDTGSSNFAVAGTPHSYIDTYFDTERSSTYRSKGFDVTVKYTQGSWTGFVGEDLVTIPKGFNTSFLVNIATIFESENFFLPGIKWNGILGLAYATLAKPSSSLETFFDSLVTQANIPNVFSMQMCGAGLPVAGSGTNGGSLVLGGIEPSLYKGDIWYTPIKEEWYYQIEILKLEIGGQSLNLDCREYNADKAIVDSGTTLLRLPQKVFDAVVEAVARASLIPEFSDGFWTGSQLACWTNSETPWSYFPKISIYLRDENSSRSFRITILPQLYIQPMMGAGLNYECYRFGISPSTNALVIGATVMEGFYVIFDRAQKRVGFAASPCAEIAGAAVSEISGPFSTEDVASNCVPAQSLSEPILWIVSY

With `C[C@@]1(c2sc(-c3cccc(-c4nnco4)c3)cc2Cl)CS(=O)(=O)[C@@]2(CCOC2)C(=N)N1` [Example 63g] the Ki [1] was < 50 nM and the Ki [2] was 20.2 nM.
Compound `C[C@@]1(c2cc(N)ccc2F)CS(=O)(=O)C2(CCCC2)C(=N)N1` has a Ki [1] of 1420 nM and a Ki [2] of 4130 nM.
With `CC(C)(C)C#Cc1cc(Cl)c([C@]2(C)CS(=O)(=O)C3(CCC3)C(=N)N2)s1` [Example 77a] the Ki [1] was < 20 nM and the Ki [2] was 165 nM.
In the case of `C[C@@]1(c2sc(-c3cncc(C#N)c3)cc2Cl)CS(=O)(=O)[C@]2(CCOC2)C(=N)N1` [Example 62f], the Ki [1] is reported as < 20 nM and the Ki [2] is reported as 67.1 nM.
For `C[C@@]1(c2cc(NC(=O)c3ccc(C#N)cn3)ccc2F)CS(=O)(=O)C2(CCCCC2)C(=N)N1` [Example 28], the Ki [1] was < 20 nM and the Ki [2] was 10.6 nM.
For `C[C@@]1(c2cc(NC(=O)c3cn4ccsc4n3)ccc2F)CS(=O)(=O)C2(CCCC2)C(=N)N1` [Example 20], the Ki [1] was < 20 nM and the Ki [2] was 82 nM.
With `C[C@@]1(c2sc(C#CC3(c4ccccc4)CCCC3)cc2Cl)CS(=O)(=O)C2(CCC2)C(=N)N1` [Example 77] the Ki [1] was < 50 nM and the Ki [2] was 2550 nM.
In the case of `C[C@@]1(c2sc(-c3ccnc(-c4ccsc4)c3)cc2Cl)CS(=O)(=O)[C@@]2(CCOC2)C(=N)N1` [Example 63n], the Ki [1] is reported as < 20 nM and the Ki [2] is reported as 428 nM.
In the case of `COc1ccc(C(=O)Nc2ccc(F)c([C@]3(C)CS(=O)(=O)C4(CCC4)C(=N)N3)c2)nc1` [Example 10], the Ki [1] is reported as < 20 nM and the Ki [2] is reported as 10.7 nM.
With `C[C@@]1(c2sc(-c3cncc(C#N)c3)cc2Cl)CS(=O)(=O)C2(CCC2)C(=N)N1` [Example 59] the Ki [1] was < 20 nM and the Ki [2] was 56 nM.
`Cc1nc(C(=O)Nc2ccc(F)c([C@]3(C)CS(=O)(=O)C4(CCCC4)C(=N)N3)c2)no1` [Example 21] gave a Ki [1] of 1.3 nM and a Ki [2] of 13.9 nM.
`COc1cccc2cc(-c3cc(Cl)c([C@]4(C)CS(=O)(=O)C5(CC5)C(=N)N4)s3)[nH]c12` [Example 64] was tested, and the Ki [1] was 1 nM and the Ki [2] was 10 nM.
In the case of `C[C@@]1(c2cc(NC(=O)c3cnc(C(F)(F)F)cn3)ccc2F)CS(=O)(=O)C2(CCCC2)C(=N)N1` [Example 16], the Ki [1] is reported as < 20 nM and the Ki [2] is reported as 13 nM.
`C[C@@]1(c2sc(Br)cc2Cl)CS(=O)(=O)C2(CC2)C(=N)N1` was tested, and the Ki [1] was 465 nM and the Ki [2] was 912 nM.
`C[C@@]1(c2sc(Br)cc2Cl)CS(=O)(=O)C2(CCCC2)C(=N)N1` was tested, and the Ki [1] was 134 nM and the Ki [2] was 447 nM.
Compound `COc1cccc2cc(-c3cc(Cl)c([C@]4(C)CS(=O)(=O)C5(CCC5)C(=N)N4)s3)[nH]c12` [Example 58] has a Ki [1] of 1 nM and a Ki [2] of 7.7 nM.
`C[C@@]1(c2cc(NC(=O)c3ccc(C(F)(F)F)cn3)ccc2F)CS(=O)(=O)[C@]2(CCOC2)C(=N)N1` [Example 62d] was tested, and the Ki [1] was < 50 nM and the Ki [2] was 17 nM.
`C[C@@]1(c2sc(-c3cccc(-c4nnco4)c3)cc2Cl)CS(=O)(=O)C2(CCCCC2)C(=N)N1` [Example 47a] was tested, and the Ki [1] was < 50 nM and the Ki [2] was 35.9 nM.
In the case of `COc1cnc(C(=O)Nc2ccc(F)c([C@]3(C)CS(=O)(=O)C4(CC4)C(=N)N3)c2)cn1` [Example 2], the Ki [1] is reported as < 20 nM and the Ki [2] is reported as 4.2 nM.
`COc1ccc(C(=O)Nc2ccc(F)c([C@]3(C)CS(=O)(=O)C4(CCCCC4)C(=N)N3)c2)nc1` [Example 26] was tested, and the Ki [1] was < 20 nM and the Ki [2] was 37 nM.
`C[C@@]1(c2sc(C#CC3CCCC3)cc2Cl)CS(=O)(=O)C2(CCC2)C(=N)N1` [Example 77b] was tested, and the Ki [1] was < 50 nM and the Ki [2] was 110 nM.
With `C[C@@]1(c2cc(N)ccc2F)CS(=O)(=O)C2(CCOCC2)C(=N)N1` the Ki [1] was 3580 nM and the Ki [2] was 7020 nM.
With `C[C@@]1(c2cc(NC(=O)c3ccc(F)cn3)ccc2F)CS(=O)(=O)C2(CCCC2)C(=N)N1` [Example 13] the Ki [1] was 0.3 nM and the Ki [2] was 3.1 nM.
`C[C@@]1(c2cc(NC(=O)c3ccc(F)cn3)ccc2F)CS(=O)(=O)C2(CC(O)C2)C(=N)N1` (stereo partly drawn) [Example 74] gave a Ki [1] of 3.8 nM and a Ki [2] of 21.8 nM.
`COc1ccc(C(=O)Nc2ccc(F)c([C@]3(C)CS(=O)(=O)C4(CCOCC4)C(=N)N3)c2)nc1` [Example 35] was tested, and the Ki [1] was < 20 nM and the Ki [2] was 16.4 nM.
`COc1ccc(C(=O)Nc2ccc(F)c([C@]3(C)CS(=O)(=O)[C@]4(CCOC4)C(=N)N3)c2)nc1` [Example 62a] was tested, and the Ki [1] was < 20 nM and the Ki [2] was 30.3 nM.
`C[C@@]1(c2cc([N+](=O)[O-])ccc2F)CS(=O)(=O)[C@@]2(CCOC2)C(=N)N1` gave a Ki [1] of 2670 nM and a Ki [2] of 6120 nM.
Compound `C[C@@]1(c2cc(NC(=O)c3ncc(F)cc3F)ccc2F)CS(=O)(=O)C2(CCC2)C(=N)N1` [Example 9] has a Ki [1] of 2.5 nM and a Ki [2] of 12.6 nM.
In the case of `C[C@@]1(c2cc(NC(=O)c3ccc(F)cn3)ccc2F)CS(=O)(=O)C2(CCC(O)C2)C(=N)N1` (single isomer, unassigned) [Example 76a], the Ki [1] is reported as 2.4 nM and the Ki [2] is reported as 9.3 nM.
With `C[C@@]1(c2sc(-c3cncc(C#N)c3)cc2Cl)CS(=O)(=O)C2(CCCCC2)C(=N)N1` [Example 46] the Ki [1] was < 50 nM and the Ki [2] was 114 nM.
In the case of `COc1cnc(C(=O)Nc2ccc(F)c([C@]3(C)CS(=O)(=O)C4(CCCCC4)C(=N)N3)c2)cn1` [Example 27], the Ki [1] is reported as < 50 nM and the Ki [2] is reported as 36 nM.
With `C[C@@]1(c2cc(NC(=O)c3ccc(C(F)(F)F)cn3)ccc2F)CS(=O)(=O)C2(CCCC2)C(=N)N1` [Example 14] the Ki [1] was 2.1 nM and the Ki [2] was 2.2 nM.
Work on `COc1cccc2cc(-c3cc(Cl)c([C@]4(C)CS(=O)(=O)C5(CCCCC5)C(=N)N4)s3)[nH]c12` [Example 44] yielded a Ki [1] of 2 nM and a Ki [2] of 20.2 nM.
With `C[C@@]1(c2cc(NC(=O)c3ccc(Cl)cn3)ccc2F)CS(=O)(=O)C2(CC2)C(=N)N1` [Example 1] the Ki [1] was 0.4 nM and the Ki [2] was 1.6 nM.
`CCc1cccc(NC(=O)c2cc(Cl)c([C@]3(C)CS(=O)(=O)C4(CC4)C(=N)N3)s2)n1` [Example 79] was tested, and the Ki [1] was < 20 nM and the Ki [2] was 88 nM.
`C[C@@]1(c2cc(NC(=O)c3ccc(C#N)cn3)ccc2F)CS(=O)(=O)[C@@]2(CCOC2)C(=N)N1` [Example 63d] was tested, and the Ki [1] was < 20 nM and the Ki [2] was 5.2 nM.
